## */C=C/c1cccc(OC(=O)CCCCCCCCC(=O)Oc2ccc(-c3nnc(*)s3)cc2)c1 (repeat unit)
  glass transition temperature: 55.00 °C

## *c1ccc2c(c1)C(=O)N(c1cccc(C(F)(F)C(F)(F)C(F)(F)c3cccc(N4C(=O)c5ccc(C(F)(F)C(F)(F)C(F)(F)C(F)(F)C(F)(F)C(F)(F)C(*)(F)F)cc5C4=O)c3)c1)C2=O (repeat unit)
  glass transition temperature: 133.50 °C

## *CCC1C[N+](C)(C)CC1* (repeat unit)
  glass transition temperature: -6.70 °C

## *CCCCOC(=O)CCCCCCCCCCCCCCCCCCCCCCCCCCCCCCCCCCC(=O)O* (repeat unit)
  glass transition temperature: -55.00 °C

## *Oc1cc(CC)cc(OC(=O)c2cccc(C(*)=O)c2)c1 (repeat unit)
  glass transition temperature: 138.00 °C

## *CC(*)(C)C(=O)OCC1COC(=O)O1 (repeat unit)
  glass transition temperature: 124.00 °C

## *O[Si](*)(C)CCCOc1ccc(-c2ccc(OC(=O)CCCCC(=O)OC3CC(C)CCC3C(C)C)cc2)cc1 (repeat unit)
  glass transition temperature: 43.30 °C

## *c1ccc(OCCCCCCCCCCCOC(=O)c2ccc(C(=O)OCCCCCCCCCCCOc3cccc(-c4nnc(*)s4)c3)cc2)cc1 (repeat unit)
  glass transition temperature: 35.00 °C

## *CC(C#N)C(CCC(C)(O)C=C)C(*)(C)C (repeat unit)
  glass transition temperature: 50.00 °C

## *CCC(=O)Nc1ccc(Oc2ccc(Oc3ccc(NC(=O)CCN4C(=O)c5ccc(C(=O)c6ccc7c(c6)C(=O)N(*)C7=O)cc5C4=O)cc3)cc2)cc1 (repeat unit)
  glass transition temperature: 221.00 °C

## *O[Si](*)(C)CCCOc1ccc(C(=O)Oc2ccc(-c3ccc(OC(=O)c4cc(OCCCCC)c(OCCCCC)c(OCCCCC)c4)cc3)cc2)cc1 (repeat unit)
  glass transition temperature: 49.00 °C

## *C(=O)OCCN(CCOC(=O)c1ccc2c(c1)C(=O)N(c1c(C)cc(Cc3cc(C)c(N4C(=O)c5ccc(*)cc5C4=O)c(C)c3)cc1C)C2=O)c1ccc(/N=N/c2ccc([N+](=O)[O-])cc2)cc1 (repeat unit)
  glass transition temperature: 179.00 °C

## *CCC(=O)NCc1cc(C)c(CNC(=O)CCO*)cc1C (repeat unit)
  glass transition temperature: 80.00 °C

## *CC(*)c1ccccc1COCCc1ccccc1 (repeat unit)
  glass transition temperature: 63.00 °C

## *CC(CC)(CO*)COC(=O)C(=C)C (repeat unit)
  glass transition temperature: 40.00 °C

## *CC(*)C(=O)OCCCCCCOc1ccc(/N=N/c2ccc([N+](=O)[O-])cc2)cc1 (repeat unit)
  glass transition temperature: 35.80 °C

## *CCN(CCNC(=O)c1ccc2c(c1)C(=O)N(*)C2=O)c1ccc(/C=C/c2ccc([N+](=O)[O-])cc2)cc1 (repeat unit)
  glass transition temperature: 142.00 °C

## *CC#CC#CCOc1ccc(C(=O)OCCN(CCOC(=O)c2ccc(O*)cc2)c2ccc(/N=N/c3ccc(/N=N/c4cc(C)c(C#N)c(C)c4)cc3)cc2)cc1 (repeat unit)
  glass transition temperature: 120.00 °C

## *OC(F)(F)COC(=O)c1cccc(C(F)(F)C(F)(F)C(F)(F)c2cccc(C(=O)OCC(*)(F)F)c2)c1 (repeat unit)
  glass transition temperature: 30.00 °C

## *c1ccc2c(c1)C(=O)N(c1ccc(Oc3ccccc3Oc3ccc(N4C(=O)c5ccc(C(*)(C(F)(F)F)C(F)(F)F)cc5C4=O)cc3C(F)(F)F)c(C(F)(F)F)c1)C2=O (repeat unit)
  glass transition temperature: 247.00 °C

## *c1cccc(Cc2cccc(N3C(=O)c4ccc([Si](C)(C)O[Si](C)(C)O[Si](C)(C)c5ccc6c(c5)C(=O)N(*)C6=O)cc4C3=O)c2)c1 (repeat unit)
  glass transition temperature: 208.00 °C

## *CC(*)C1=NCCN1 (repeat unit)
  glass transition temperature: -48.3 °C

## *c1ccc(Sc2ccc(Sc3ccc(Sc4ccc(-n5c(=O)c6cc7c(=O)n(*)c(=O)c7cc6c5=O)cc4)cc3)cc2)cc1 (repeat unit)
  glass transition temperature: 234.1 °C

## *CC(*)C(=O)OC(Cl)C(Cl)(Cl)Cl (repeat unit)
  glass transition temperature: 70.50 °C

## *c1cc(OCCCCCCCCCCCC)cc(N2C(=O)c3ccc(Oc4ccc5c(c4)C(=O)N(*)C5=O)cc3C2=O)c1 (repeat unit)
  glass transition temperature: 162.00 °C

## *Oc1c(C)cc(C2(c3cc(C)c(Oc4ccc(C(=O)c5cccc(C(=O)c6ccc(*)cc6)c5)cc4)c(C)c3)c3ccccc3-c3ccccc32)cc1C (repeat unit)
  glass transition temperature: 229.00 °C

## *Oc1ccc(-c2ccc(Oc3ccc(C(=O)c4ccc5cc(C(=O)c6ccc(*)cc6)ccc5c4)cc3)cc2)cc1 (repeat unit)
  glass transition temperature: 195.00 °C

## *c1ccc2c(c1)C(=O)N(c1ccc(C(=O)Nc3ccc(C(c4ccc(NC(=O)c5ccc(N6C(=O)c7ccc(C(*)(C(F)(F)F)C(F)(F)F)cc7C6=O)c(C)c5)cc4)(C(F)(F)F)C(F)(F)F)cc3)cc1C)C2=O (repeat unit)
  glass transition temperature: 344.00 °C

## *Oc1ccc(Oc2ccc(C(=O)c3ccc(*)cc3)cc2)cc1-c1cc(C(F)(F)F)cc(C(F)(F)F)c1 (repeat unit)
  glass transition temperature: 146.00 °C

## *c1ccc(C(=O)Oc2c(C)cc(C(c3cccnc3)c3cc(C)c(OC(=O)c4ccc(N5C(=O)CC(Nc6ccc(NC7CC(=O)N(*)C7=O)cc6)C5=O)cc4)c(C)c3)cc2C)cc1 (repeat unit)
  glass transition temperature: 212.00 °C

## *c1c(C)cc(C)c(-n2c(=O)c3cc4c(=O)n(*)c(=O)c4cc3c2=O)c1C (repeat unit)
  glass transition temperature: 399.8 °C

## *c1ccc2c(c1)C(=O)N(c1cccc(C(=O)Nc3ccc(Oc4ccc(Oc5ccc(NC(=O)c6cccc(N7C(=O)c8ccc(C(*)(C(F)(F)F)C(F)(F)F)cc8C7=O)c6)cc5)cc4)cc3)c1)C2=O (repeat unit)
  glass transition temperature: 283.00 °C

## *c1cc(-c2ccc(C(=C3C=C(C(C)(C)C)C(=O)C(C(C)(C)C)=C3)c3cc(C(C)(C)C)c(OC(C)=O)c(C(C)(C)C)c3)cc2)c(*)s1 (repeat unit)
  glass transition temperature: -4.30 °C

## *c1cccc(C(c2cccc(N3C(=O)c4ccc(-c5ccc6c(c5)C(=O)N(*)C6=O)cc4C3=O)c2)(C(F)(F)F)C(F)(F)F)c1 (repeat unit)
  glass transition temperature: 267.00 °C

## *OP(=O)(Oc1ccc(C(C)(C)c2ccc(*)cc2)cc1)Oc1c(Cl)cc(Cl)cc1Cl (repeat unit)
  glass transition temperature: 94.00 °C

## *CCCCCCNC(=O)c1ccc(C(=O)N*)c(Oc2ccc(-c3ccccc3)cc2)c1 (repeat unit)
  glass transition temperature: 112.00 °C

## *Oc1ccc(S(=O)(=O)c2ccc(-c3ccc(S(=O)(=O)c4ccc(*)cc4)cc3)cc2)cc1 (repeat unit)
  glass transition temperature: 282.00 °C

## *Sc1ccc(P(=O)(c2ccccc2)c2ccc(Sc3ccc(-c4ccc(*)cc4)cc3)cc2)cc1 (repeat unit)
  glass transition temperature: 232.00 °C

## *C(=O)c1ccc2c(c1)C(=O)N(c1cc(OCCCCCCCCCCCCCCCC)cc(N3C(=O)c4ccc(*)cc4C3=O)c1)C2=O (repeat unit)
  glass transition temperature: 179.00 °C

## *C(=O)c1ccc2c(c1)C(=O)N(c1ccc(Oc3ccccc3Oc3ccc(N4C(=O)c5ccc(*)cc5C4=O)cc3C(F)(F)F)c(C(F)(F)F)c1)C2=O (repeat unit)
  glass transition temperature: 236.00 °C

## *Cc1cc2cc(C(=O)Nc3ccc(Oc4ccc(NC(=O)c5cc6cc(*)c(OC(=O)COc7ccc8ccc(=O)oc8c7)cc6oc5=O)cc4)cc3)c(=O)oc2cc1OC(=O)COc1ccc2ccc(=O)oc2c1 (repeat unit)
  glass transition temperature: 226.00 °C

## *CC(*)OCCOc1ccc(C=C(C#N)C#N)cc1 (repeat unit)
  glass transition temperature: 38.00 °C

## *CC(COCCCC)O* (repeat unit)
  glass transition temperature: -79.00 °C

## *Oc1ccc(/C(=C/c2cc(OC)c(/C=C(/c3ccc(*)cc3)c3ccc(F)cc3)cc2OC)c2ccc(F)cc2)cc1 (repeat unit)
  glass transition temperature: 187.00 °C

## */C=C(/*)CCCOc1ccc(OC(=O)c2ccc(OCCCC)cc2)cc1 (repeat unit)
  glass transition temperature: 36.00 °C

## *O[Si](*)(C)CCCC (repeat unit)
  glass transition temperature: -115.00 °C

## *Oc1ccc(C(C)(C)c2ccc(Oc3ccc4c(=O)n5c6cc(-c7ccc8c(c7)nc7c9ccc(*)c%10cccc(c(=O)n87)c%109)ccc6nc5c5cccc3c45)cc2)cc1 (repeat unit)
  glass transition temperature: 380.00 °C

## *CC(*)(C)C(=O)OCCCCCC(=O)Oc1ccc(OC(=O)c2ccc(OCC)cc2)cc1 (repeat unit)
  glass transition temperature: 43.00 °C

## *c1ccc(Oc2ccccc2Oc2ccc(N3C(=O)c4ccc(Oc5ccccc5Oc5ccc6c(c5)C(=O)N(*)C6=O)cc4C3=O)cc2)cc1 (repeat unit)
  glass transition temperature: 193.00 °C

## *CCOCCOCCOC(=O)C1CCC(C(=O)O*)CC1 (repeat unit)
  glass transition temperature: -25.00 °C

## *Sc1cccc(Sc2ccc(Sc3ccc(*)cc3)cc2)c1 (repeat unit)
  glass transition temperature: 69.00 °C

## *c1ccc(Oc2cccc(Oc3ccc(N4C(=O)c5ccc(Oc6ccc(C(C)(C)c7ccc(Oc8ccc9c(c8)C(=O)N(*)C9=O)cc7)cc6)cc5C4=O)cc3)c2)cc1 (repeat unit)
  glass transition temperature: 246.00 °C

## *CC(O)COc1ccc(S(=O)(=O)c2ccc(O*)c(C)c2)cc1C (repeat unit)
  glass transition temperature: 132.50 °C

## *c1ccc(-c2cc(C(C)(C)C)c(Oc3ccc(N4C(=O)c5ccc(Oc6ccc7c(c6)C(=O)N(*)C7=O)cc5C4=O)cc3)c(C(C)(C)C)c2)cc1 (repeat unit)
  glass transition temperature: 342.00 °C

## *C(=O)c1ccc(Oc2ccc(C3(c4ccc(Oc5ccc(C(=O)c6ccc7c(c6)C(=O)N(c6ccc(Oc8ccc(N9C(=O)c%10ccc(*)cc%10C9=O)cc8)cc6)C7=O)cc5)cc4)OC(=O)c4ccccc43)cc2)cc1 (repeat unit)
  glass transition temperature: 260.00 °C

## *c1ccc(Oc2ccc(S(=O)(=O)c3ccc(Oc4ccc(-c5ncc(*)o5)cc4C(F)(F)F)cc3)cc2)c(C(F)(F)F)c1 (repeat unit)
  glass transition temperature: 210.00 °C

## *OC(*)CCC (repeat unit)
  glass transition temperature: -41.00 °C

## *C(=O)Nc1ccc(Oc2ccc(NC(=O)c3ccc4c(c3)C(=O)N(c3ccc(Oc5ccc(N6C(=O)c7ccc(*)cc7C6=O)cc5-c5ccccc5)c(-c5ccccc5)c3)C4=O)cc2)cc1 (repeat unit)
  glass transition temperature: 345.00 °C

## *c1ccc(-c2cc(-c3ccc(-c4ccccc4)cc3)cc(-c3ccc(N4C(=O)c5ccc(NC(=O)Nc6cccc(NC(=O)Nc7ccc8c(c7)C(=O)N(*)C8=O)n6)cc5C4=O)cc3)n2)cc1 (repeat unit)
  glass transition temperature: 248.00 °C

## *CC(*)OC(=O)c1cccc(Br)c1 (repeat unit)
  glass transition temperature: 57.50 °C

From the PolyMetriX glass transition set
